{"source": "patent US20040170601A1", "about": "“Method of improving the growth performance of an animal” (priority 2001, published 2004)", "key": {"haemorrhagic E. coli": {"system": "haemorrhagic E. coli", "test": "Example 6: haemorrhagic E. coli challenge of weaner pigs", "type": "in vivo", "design": "decrease in faecal shedding (total faecal culture scores) compared to saline treated controls / reduction in clinical signs compared to saline controls / reduction in E. coli culture scores at post-mortem compared to saline controls / reduction of bacterial load in the small intestine (foregut) compared with saline controls: concentration or dose not given beside the values", "protocol": "Male weaner pigs, with a mean weight of 5.4 kg were allocated to groups of 8, with the mean weight being equalised between groups. Pigs were housed in group pens. Pigs were provided with pelleted feed and water ad libitum.\nPigs were treated with cytokines or the antibiotic, Apralan, and challenged with E. coli according to the schedule outlined in FIG. 42. E. coli were delivered orally in an 8 ml dose containing 10^8 cfu/ml. Blood was sampled from pigs by venipuncture at −2 days, day 0, and +6 days from initial challenge with E. coli as outlined in FIG. 42. Blood was assayed for immunological parameters as previously described. Pigs were weighed at day −2 and at the end of the trial on day 7.\nFaecal samples were taken from each pig daily from day 2 to day 6 after challenge; these samples were cultured on sheep blood agar to quantify E. coli load. The condition of faeces on each day of challenge was noted as normal, wet or diarrhoea, as an indication of clinical signs.\nAt the conclusion of the experiment, pigs were euthanased and samples were taken from different areas in the gastro-intestinal tract, including the small intestine (25%, 50% and 75% along the length of the small intestine), the caecum and colon, and from the faeces. These post-mortem samples were also plated out on sheep blood agar to quantify E. coli load. Growth on sheep blood agar was scored from 0 to 5 (where 0 was no growth, 1 signified growth in the primary inoculum, 2 signified growth in the first streak, 3 signified growth in the 2nd streak, 4 signified growth in the 3rd streak, and 5 signified growth of E. coli in the final streak), and group means and standard errors were calculated."}, "[1]": {"system": "Brachyspira (Serpulina) hyodysenteriae", "test": "Example 7: swine dysentery challenge, IL-5 prophylactic", "type": "in vivo, pigs", "text": "(§1) One aim of this example was to determine whether IL-5 could improve the health of pigs infected with an enteric inflammatory pathogen causing swine dysentery, Brachyspira (Serpulina) hyodysenteriae. A further aim was to determine whether IL-5 could improve the growth rate of pigs under conditions of challenge with swine dysentery.\n(§2) Male pigs with a mean starting weight of 6.5 kg, were allocated to treatment groups consisting of eight pigs (Table 6). Pigs were housed in group pens, with each pen containing a replicate from each of the treatment groups. One group of 8 pigs was housed in a separate room and left uninfected to act as untreated controls. Pigs were provided with pelleted feed and water ad libitum.\n(§3) Prior to swine dysentery challenge, pigs were treated with recombinant IL-5 or saline, as described in Table 6. Cytokines and the antibiotic, Lincomycin, were delivered by intramuscular injection at intervals outlined in Table 7. Pigs were infected with Brachyspira hyodysenteriae at day 0, day 1 and day 2, given as an oral bolus of 120 ml of spirochaete culture in log phase of growth, containing approximately […].\n(§4) Faecal swabs and blood samples were taken from each pig at intervals described in Table 7. Faecal swabs were cultured for the presence of spirochaetes. Blood samples were assayed for immunological parameters as described in example 1 above. Pigs were weighed at weekly intervals throughout the experiment, which was terminated by euthanasia on days 19 and 20 after the initial challenge. At post mortem swabs from areas of the hindgut were cultured for the presence of spirochaetes, and the gross pathological condition of the gastro-intestinal tissue noted."}, "[2]": {"system": "Brachyspira (Serpulina) hyodysenteriae", "test": "Example 13: swine dysentery challenge, IL-4 prophylactic", "type": "in vivo, pigs", "text": "as §1, with “The” for “One”, “IL-4” for “IL-5”\nas §2, with “10).” for “6).”\nas §3, with “IL-4” for “IL-5”, “10.” for “6.”, “Lincocin,” for “Lincomycin,”, “11.” for “7.”, “120ml” for “120 ml”\nas §4, with “11.” for “7.”"}, "[3]": {"conditions": "cited from earlier work"}, "TNFα": {"system": "TNFα", "test": "Example 12: TNFα in serum after App challenge (bioassay, L929 target cells)", "type": "in vivo, pigs", "conditions": "day 13 after challenge", "protocol": "(§5) Due to the intermittent availability of Actinobacillus pleuropneumoniae (App), the App challenge was performed separately on the 2 rooms, resulting in different time schedules for each room, as outlined in Table 9. Prior to each challenge, pigs were treated with recombinant cytokines, flunix or plasmids as described above; the timing of treatments with respect to challenge is described in Table 9. Pigs were anaesthetised and infected intratracheally with 7.5×10^5 […] on day 0.\n[…] Blood was assayed for immunological parameters as previously described.\n(§6) Briefly, assays were performed on blood samples using standard techniques, including: white blood cell counts performed using an automated cell counter; differential cell counts performed manually on stained blood smears; lymphocyte subset enumeration via flow cytometry; neutrophil function determined by flow cytometry; lymphocyte proliferation determined using a thymidine incorporation assay in response to mitogens; total IgG and IgA levels were identified using indirect sandwich ELISA; levels of mRNA for pro-inflammatory cytokines was detected by RT-PCR. TNF levels were additionally measured in serum by bioassay using L929 target cells. Pigs were weighed weekly from delivery of plasmids and for 2 weeks after challenge."}, "[4]": {"system": "Actinobacillus pleuropneumoniae", "test": "Example 12: Actinobacillus pleuropneumoniae (App) challenge: growth, clinical signs, lung pathology", "type": "in vivo, pigs", "text": "The following experiment was designed to determine whether IL-4 could improve the growth of immunologically challenged pigs compared to saline treated controls and positive controls treated with the non-steroidal anti-inflammatory drug (NSAID) Flunix. It was also devised to determine whether IL-4 could be delivered via plasmids.\nMale pigs, with a mean starting weight of 52 kg, were allocated to 5 treatment groups (Table 8). Pigs were housed in group pens, with each pen containing a replicate from each of the treatment groups. Pigs were provided with pelleted feed and water ad libitum.\nRecombinant IL-4 and saline were administered as 2 ml doses, given subcutaneously behind the ear. Plasmids were administered in 1 ml doses, given intramuscularly in the hind-leg. Flunix was administered as a 2 ml dose according to the manufacturer's instructions, and delivered intramuscularly in the neck. The timetable of administration is outlined in Table 9 below.\nas §5, §6\nIL-4 delivered as a recombinant caused a reduction of 36% in the presence of clinical symptoms compared to pigs treated with saline, while IL-4 delivered in plasmid form produced a reduction of 62% compared to saline-treated controls (45% reduction compared to plasmid-treated controls).\nAt the conclusion of the trial, pigs were euthanased and the lungs removed for post-mortem examination. Lungs were scored for pleurisy from 0-5 (FIG. 79) and the degree of pleuropneumonia was determined by weighing affected lung and expressed as a percentage of total lung weight (FIG. 80)."}}, "note": "Entries after “also recorded” stand apart in the source; their conditions may differ."}
{"smiles": "CN[C@@H]1[C@@H](O[C@H]2O[C@H](CO)[C@@H](N)[C@H](O)[C@H]2O)OC2C[C@@H](N)[C@@H](O[C@H]3[C@H](O)[C@@H](O)[C@H](N)C[C@@H]3N)OC2[C@@H]1O", "note": "(stereo partly drawn) [Apralan, reference compound]", "values": [{"measurement": "clinical signs (wet faeces or diarrhoea)", "setting": "haemorrhagic E. coli; 5 days after challenge", "result": "less recordings of wet faeces than did saline controls, but also displayed a minor increase in the prevalence of diarrhoea"}, {"measurement": "E. coli shedding in faeces (faecal culture)", "setting": "haemorrhagic E. coli; day 2 to day 6 after challenge", "result": "decreased E. coli shedding in faeces; also recorded: least bacterial shedding of all treatments"}, {"measurement": "decrease in faecal shedding (total faecal culture scores) compared to saline treated controls", "setting": "haemorrhagic E. coli; entire challenge period", "result": 80, "unit": "%"}, {"measurement": "appetite (daily feed intake per pig) during E. coli challenge", "setting": "haemorrhagic E. coli; pig, in vivo", "result": "improved appetite compared to saline treated pigs"}, {"measurement": "bacterial load in areas of the gastro-intestinal tract at post-mortem", "setting": "haemorrhagic E. coli; pig, in vivo", "result": "reduced bacterial load in most areas of the gastro-intestinal tract"}, {"measurement": "group mean total E. coli culture score at post-mortem (out of a possible 30)", "setting": "haemorrhagic E. coli; pig, in vivo", "result": 12}, {"measurement": "reduction in clinical signs compared to saline controls", "setting": "haemorrhagic E. coli; pig, in vivo", "result": 27, "unit": "%"}, {"measurement": "bacterial loads in the hindgut area (caecum and colon)", "setting": "haemorrhagic E. coli; post-mortem", "result": "lowest of all treatments"}, {"measurement": "reduction of bacterial load in the small intestine (foregut) compared with saline controls", "setting": "haemorrhagic E. coli; post-mortem", "result": 32, "unit": "%"}]}
{"smiles": "CCC[C@@H]1C[C@@H](C(=O)N[C@@H]([C@H]2O[C@H](SC)[C@H](O)[C@@H](O)[C@H]2O)[C@@H](C)O)N(C)C1", "note": "[Lincocin, Lincomycin, reference compound]", "values": [{"measurement": "spirochaete shedding in faeces (faecal culture)", "setting": "[1]; after challenge", "result": "no signs of faecal spirochaete shedding by day 14"}, {"measurement": "reduction in the number of spirochaetes compared to saline treated pigs", "setting": "[1]; anterior colon, post mortem", "result": 89, "unit": "%"}, {"measurement": "reduction in the number of spirochaetes compared to saline treated pigs", "setting": "[1]; caecum, post mortem", "result": 93, "unit": "%"}, {"measurement": "reduction in the number of spirochaetes compared to saline treated pigs", "setting": "[1]; faecal, post mortem", "result": 100, "unit": "%"}, {"measurement": "incidence of clinical signs in faeces (of 8 pigs)", "setting": "[1]; post mortem", "result": "one"}, {"measurement": "reduction in the number of spirochaetes compared to saline treated pigs", "setting": "[1]; posterior colon, post mortem", "result": 88, "unit": "%"}, {"measurement": "spirochaete shedding in faeces (faecal culture)", "setting": "[2]; after challenge", "result": "no signs of faecal spirochaete shedding by day 14"}, {"measurement": "gross pathology associated with dysentery", "setting": "[2]; anterior colon, post mortem", "result": "reduced the incidence of pathological symptoms in anterior and posterior colon"}, {"measurement": "total weight gained over the challenge period", "setting": "[2]; day 7 prior to challenge to slaughter at days 19 and 20", "result": 6.9, "unit": "kg"}, {"measurement": "mean weight at the end of the trial", "setting": "[2]; days 19 and 20 after infection", "result": 12.2, "unit": "kg"}, {"measurement": "incidence of clinical signs in faeces (of 8 pigs)", "setting": "[2]; post mortem", "result": "one"}, {"measurement": "gross pathology associated with dysentery", "setting": "[2]; posterior colon, post mortem", "result": "reduced the incidence of pathological symptoms in anterior and posterior colon"}]}
{"smiles": "CC(=O)OC/C=C(C)/C=C/C=C(C)/C=C/C1=C(C)CCCC1(C)C", "note": "[Retinyl acetate]", "values": [{"measurement": "IL-5 level and IL-4- and IL-5-containing cells in small intestinal mucosa", "setting": "[3]; mice fed low-protein diet, 1 mg", "result": "significantly restored the IL-5 level and the number of IL-4- and IL-5-containing cells"}, {"measurement": "anti-CT IgA level in intestinal mucosa", "setting": "[3]; mouse, in vivo", "result": "prevented the decline of anti-CT IgA level in the protein-deficient mice"}]}
{"smiles": "CNC[C@H](O)[C@@H](O)[C@H](O)[C@H](O)CO.Cc1c(Nc2ncccc2C(=O)O)cccc1C(F)(F)F", "note": "[flunix, reference compound]", "values": [{"measurement": "TNFα production (serum)", "setting": "TNFα", "result": "failed to inhibit the production of TNFα"}, {"measurement": "growth during the (first) week of App challenge", "setting": "[4]; pig, in vivo", "result": "weight loss"}, {"measurement": "growth in the second week of challenge", "setting": "[4]; pig, in vivo", "result": "poorest growth of all groups in the second week of challenge"}, {"measurement": "pleurisy at necropsy (score 0-5)", "setting": "[4]; pig, in vivo", "result": "less pleurisy than the saline controls"}, {"measurement": "weight gain over the 2 week period following challenge with App", "setting": "[4]; pig, in vivo", "result": "lowest growth over the 2 week challenge period"}, {"measurement": "weight gain over the 2 week period following challenge with App", "setting": "[4]; pig, in vivo, listed as Flunix", "result": "poorest performing treatment in terms of growth"}, {"measurement": "percentage of lung affected by App lesions", "setting": "[4]; vs saline-treated controls", "result": "greatly reduced"}]}
